Target: Enoyl acyl carrier protein (ACP) reductase (InhA) (Mycobacterium tuberculosis, UniProt P9WGR1)
Test: colorimetric InhA assay, NADH oxidation at […] nm with 2-trans-octanoyl-CoA
Type: biochemical

Chain of Enoyl acyl carrier protein (ACP) reductase (InhA) (P9WGR1 whole entry, looked up): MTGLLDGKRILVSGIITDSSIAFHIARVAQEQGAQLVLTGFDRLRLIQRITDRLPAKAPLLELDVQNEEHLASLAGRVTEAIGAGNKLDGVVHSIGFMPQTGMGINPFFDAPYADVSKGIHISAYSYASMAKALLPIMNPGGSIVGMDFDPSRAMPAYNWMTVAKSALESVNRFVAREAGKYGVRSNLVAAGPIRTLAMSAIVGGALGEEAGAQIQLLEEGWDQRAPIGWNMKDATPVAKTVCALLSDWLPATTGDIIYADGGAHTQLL

Row | SMILES | IC50
1 | C/C(=N\NS(=O)(=O)c1ccc(C)cc1)c1c(O)c2ccccc2oc1=O [compound 3] | 1.62 ± 0.69 µM
2 | CC(=NNS(=O)(=O)c1ccc(C)cc1)c1ccccn1 [compound 7] | 0.91 ± 0.03 µM

From PMC11418391, “Benzenesulfonohydrazide-tethered non-fused and fused heterocycles as potential anti-mycobacterial agents targeting enoyl acyl carrier protein reductase (InhA) with antibiofilm activity” (RSC Advances, 2024)
